In PMC6271245, “Discovery of Gramine Derivatives That Inhibit the Early Stage of EV71 Replication in Vitro” (Molecules, 2014):
Values after ≈ are worked out from the molar mass of the structure shown. Like-named read-outs stand apart in the source and are kept apart here.

What was measured:
[1] = Cytotoxicity on uninfected Vero cells, MTT; format: cell-based; conditions: African green monkey; concentration reducing cell viability by 50%; uninfected Vero cells, 48 h, MTT; read-out: CC50 (µg/mL) Vero
Description: (§1) The antiviral activities of gramine and its derivatives against EV71 based on inhibition of virus-induced cytopathogenicity effects (CPEs) in African green monkey kidney cells (Vero) and rhabdomyosarcoma cells (RD) were examined. The cytotoxic effects were also evaluated. The inhibitory activities expressed as half maximal effective concentration (EC50) values and selectivity indexes (SI) for the target compounds are presented in Table 1, and the dose-dependent antiviral effects are shown in Figure 1A.
(§2) The activity of compounds against EV71 was determined based on the inhibition of virus-induced cytopathogenicity effects (CPEs) in acutely infected cells. Vero and RD cells grown to 90% confluency in 96-well dishes were washed with phosphate buffered saline (PBS) and infected with 100 TCID50 of EV71 mixed with serial dilutions of tested compounds for 1.5 h at 37 °C. The inoculum was aspirated and cells were incubated with DMEM and test compounds at 37 °C, 5% CO2 for 48 h. The CPEs were observed microscopically and the viability of the cells was determined with a 3-(4,5-dimethylthiazol-2-yl)-2,5-diphenyltetrazolium bromide (MTT) assay. The concentrations required for the test compounds to achieve 50% protection from virus-induced cytopathogenicity (EC50) were determined. Adverse effects of these compounds on the host cells were also assessed by means of the MTT-method; by exposing uninfected cells to various concentrations of test compounds for 48 h at 37 °C, the viability of the cells was detected. The 50% cell cytotoxic concentrations (CC50) of compounds were calculated with the SPSS software (SPSS, Chicago, IL, USA). Selectivity indexes were calculated as the ratio of CC50: EC50.
(§3) Cell viability was assessed by an MTT assay, which functions based on the reduction of a MTT into formazan dye by active mitochondria. The cells were treated with 100 µL of MTT (1 mg/mL, Sigma, St. Louis, MO, USA) and incubated at 37 °C for 4 h. The reaction was blocked by DMSO and measured in a microplate reader (Bio-Tek Instruments, Winooski, VT, USA) at 492 nm. The untreated control was arbitrarily set as 100%.

EV71 [2] = assay: Analysis of effective stage (treatment before, during or post infection) in RD cells; format: cell-based, Enterovirus 71; conditions: for titers of virus from infected cells, treatment before infection (preventive effect): RD cells pretreated 2 h with 10 µg/mL 4a, 20 µg/mL 4i, 40 µg/mL 4r or 4s, 48 h; for inhibition of virus-induced CPEs, post-infection treatment: up to 40 µg/mL
Description: To identify the step in the viral life cycle that is affected by these compounds, the assays were performed using three different treatment protocols. […] For all treatments, cell viability and progeny virus yields were measured after 48 h of infection.
Figure 2 Analysis of modes of action against EV71 of gramine derivatives. Analysis of effective stage. The RD cells were treated with tested compounds before, simultaneously or after EV71 (100 TCID50) inoculation: antiviral effects were detected by measuring (A) cell viability and (B) progeny virus yields (10 µg/mL 4a, 20 µg/mL 4i, 40 µg/mL 4r and 4s) 48 h post infection; (C) Analysis of the effects on EV71 adsorption. Mock- or 10 µg/mL 4a, 20 µg/mL 4i, 40 µg/mL 4r and 4s-treated EV71 (10^4 TCID50) was spinoculated onto RD cells and adsorbed for 2 h; intracellular virus was subjected to titration using the TCID50 method; (D) Effects on EV71 release from RD cells. RD cells infected with 100 TCID50 of EV71 were incubated with 10 µg/mL 4a, 20 µg/mL 4i, 40 µg/mL 4r and 4s for 12 h, of both cells and supernatants (intra- and extracellular), or of cells or supernatants harvested separately for virus titration. […] Values represent the mean ± standard deviation of three independent experiments.
as §3
(§4) The virus suspension, serially diluted 10-fold with DMEM containing 2% FBS, was inoculated to cells in a 96-well plate. After 1 h incubation at 37 °C in 5% CO2, unbinding virus was washed out and MM was added to the cells. After 2 days, the infected cells were monitored for cytopathic effects (CPEs). The virus titer was calculated by the Reed–Muench method.

EV71 [3] = assay: as above; format: cell-based, Enterovirus 71; conditions: up to a concentration of 40 µg/mL
[4] = Cytotoxicity on uninfected RD cells, MTT; format: cell-based; conditions: human, concentration reducing cell viability by 50%
Description: Human RD cells and Vero cells were maintained in Dulbecco’s modified Eagle’s medium (Gibco-Invitrogen, Carlsbad, CA, USA) supplemented with 10% fetal bovine serum (FBS; Gibco), 100 U/mL of penicillin and streptomycin, and 2 mM L-glutamine. Enterovirus 71 (EV71) was kindly provided by Zhanqiu Yang (Institute of Medical Virology, School of Medicine, Wuhan University, China) and propagated in RD cell lines. The virus titer was determined by the standard method of median tissue culture infective dose (TCID50) on RD cells.
as §2, §3

Enterovirus 71 (EV71) = assay: Inhibition of EV71-induced cytopathogenicity (CPE) in Vero cells, MTT; format: cell-based; conditions: Enterovirus A, read-out: EC50 (µg/mL) Vero
Description: as §1
Figure 1 Gramine and its synthetic derivatives inhibited virus-induced CPE. (A) Vero cells were infected with 100 TCID50 of EV71 mixed with serial dilutions of tested compounds for 1.5 h at 37 °C; the inoculum was aspirated and cells were incubated with DMEM/tested compounds at 37 °C, 5% CO2 for 48 h pi. The viability of the cells was determined with an MTT assay; (B) Morphology image of Vero and RD cells treated with compounds 4a, 4i, 4r, and 4s for 48 h pi. (magnification, 20×).
as §2, §3

EV71 [5] = assay: Direct inactivation of virions (virucidal test), TCID50 titration; format: cell-based, Enterovirus 71; conditions: 10^4 TCID50 EV71 incubated with 20 µg/mL 4a, 40 µg/mL 4i, 80 µg/mL 4r or 4s for 24 h at 4 °C; data not shown
Description: Based on structure specificity, antiviral activity, and selectivity therapeutic index, compounds 4a, 4i, 4r and 4s were chosen for further investigation on modes of action against EV71 infection. To determine whether these gramine derivatives inactivated virions directly, 10^4 TCID50 (median tissue culture infective dose) of EV71 suspension was incubated with 20 µg/mL 4a, 40 µg/mL 4i, or 80 µg/mL 4r or 4s for 24 h at 4 °C; subsequently, the virus titers in the mixture were measured by inoculating 100-fold dilution of the mixtures beyond the effective concentrations of the compounds into the host cells. The TCID50 values were calculated by the Reed-Muench method based on the CPE observed on day 2 post inoculation (pi). […] Thus, these compounds appear not to be virucidal for the viruses tested.
as §4

[6] = Enterovirus A, RD cells, 100 TCID50 EV71, 48 h, MTT, read-out: viability rate of infected cells, post-infection treatment
[7] = concentration for 50% protection from virus-induced cytopathogenicity, Vero cells, 100 TCID50 EV71, 48 h, MTT, mean ± SD of three experiments

Row | Structure (SMILES) | CC50 at 48 h [1] [µg/mL] | viability at 40 µg/mL (EV71 [2]; [6]) [%] | titers of virus from infected cells, treatment before infection (preventive effect) (EV71 [2]) | inhibition of virus-induced CPEs, post-infection treatment (EV71 [2]; RD cells) | morphological cytotoxicity (EV71 [3]) | CC50 at 48 h [4] [µg/mL] | EC50 (Enterovirus 71 (EV71); [7]) [µg/mL] | virus titers of mixture with vs without compound (virucidal effect) (EV71 [5]) | viability at 20 µg/mL (EV71 [2]; Enterovirus A, 20 µg/mL, RD cells, 100 TCID50 EV71, 48 h, MTT, read-out: viability rate of infected cells, post-infection treatment) [%] | viability at 10 µg/mL (EV71 [2]; Enterovirus A, 10 µg/mL, RD cells, 100 TCID50 EV71, 48 h, MTT, read-out: viability rate of infected cells, post-infection treatment) [%] | inhibition of CPEs, post-infection treatment (EV71 [2]; at 40 µg/mL and 20 µg/mL, due to cytotoxic effects on cells) | EC50 (Enterovirus 71 (EV71); EV71, Vero, 48 h) [µg/mL]
1 | Cn1cc(C(Nc2nc3ccccc3s2)c2ccccc2F)c2ccccc21 (centres unmarked) [Compound 4r] | 132 ± 8.3 (≈ 342 µM) | 84.6 | nearly the same as those from untreated cells | almost completely inhibited virus-induced CPEs | no morphological cytotoxicity was observed | 150 ± 16.2 (≈ 387 µM) | 9.9 ± 1.4 (≈ 25.5 µM) | No significant difference in virus titers | – | – | – | –
2 | Cn1cc(C(Nc2ccccn2)c2ccc(F)cc2)c2ccccc21 (centres unmarked) [Compound 4i] | 71.1 ± 3.8 (≈ 215 µM) | – | nearly the same as those from untreated cells | – | – | 65.2 ± 7.6 (≈ 197 µM) | 5.5 ± 1.6 (≈ 16.6 µM) | No significant difference in virus titers | 90.5 | – | – | –
3 | c1ccc(C(Nc2ccccn2)c2c[nH]c3ccccc23)cc1 (centres unmarked) [Compound 4a] | 32.6 ± 3.5 (≈ 109 µM) | – | nearly the same as those from untreated cells | – | – | 17.2 ± 1.6 (≈ 57.5 µM) | 12.7 ± 3.2 (≈ 42.4 µM) | No significant difference in virus titers | – | 85.8 | no inhibition of CPEs | –
4 | c1ccc(C(Nc2nc3ccccc3s2)c2c[nH]c3ccccc23)nc1 (centres unmarked) [Compound 4s] | 109 ± 16.8 (≈ 305 µM) | 95.7 | nearly the same as those from untreated cells | almost completely inhibited virus-induced CPEs | no morphological cytotoxicity was observed | 137 ± 9.3 (≈ 383 µM) | – | No significant difference in virus titers | – | – | – | 7.6 ± 2.5 (≈ 21.3 µM)
